Laboratory results reported in EPA's ToxValDB 9.5 (doi:10.2903/j.efsa.2014.3742).
Values after ≈ are worked out from the molar mass of the structure shown.

What was measured:
Tagia sp. = conditions: for LC50: acute
Folsomia candida = conditions: chronic/long-term
Oncorhynchus mykiss = conditions: for LC50: acute, duration: 96 hours, mortality; for NOEC: chronic/long-term
Daphnia magna = conditions: chronic/long-term; duration: 21 days
Colinus virginianus = conditions: acute; oral; mortality
Apis mellifera = conditions: acute, mortality
Oryctolagus sp. = conditions: reproduction developmental; morphology

SMILES | LC50 (Tagia sp.) [mg/kg] | NOEC (Tagia sp.; chronic/long-term) [mg/kg] | NOEC (Folsomia candida) [mg/kg] | LC50 (Oncorhynchus mykiss) [µg/mL] | NOEC (Oncorhynchus mykiss; duration: 28 days, other) [mg/L] | LC50 (Tagia sp.; duration: 14 days, mortality) [mg/kg] | NOEC (Daphnia magna) [mg/L] | NOEC (Oncorhynchus mykiss; duration: 21 days) [mg/L] | NOEC (Anas platyrhynchos; reproductive, duration: 15 months, morphology) [mg/kg-day] | LC50 (Anas platyrhynchos; short-term, duration: 5 days, oral, feed, mortality) [mg/kg] | LC50 (Rattus norvegicus; acute, mortality) [mg/kg] | NOAEL (Rattus norvegicus; reproduction developmental) [mg/kg-day] | NOAEL (Rattus norvegicus; reproduction developmental, morphology) [mg/kg-day] | NOAEL (Rattus norvegicus; subchronic, duration: 90 days, oral, histopathology: neoplastic) [mg/kg-day] | LD50 (Colinus virginianus) [mg/kg] | LD50 (Apis mellifera; dermal) [µg/piece] | LD50 (Apis mellifera; oral, unspecified) [µg/piece] | NOAEL (Oryctolagus sp.) [mg/kg-day]
c1nc[nH]n1 [1H-1,2,4-Triazole] | > 1000 | ≤ 1 | 1.8 | 498 (≈ 7.21 mM) | 3.2 |  |  |  |  |  |  |  |  |  |  |  |  | 
Nc1ncn[nH]1 [Amitrole] |  |  |  | > 1000 |  | > 448 | 0.32 | 100 | 16 | > 829 | 5000 | 0.9 | 0.12 | 0.1 | > 2150 | > 100 | > 152 | 3
